Reference: ChEMBL document CHEMBL1132622, “Synthesis, structure-activity relationships, and in vivo evaluations of substituted di-tert-butylphenols as a novel class of potent, selective, and orally active cyclooxygenase-2 inhibitors. 2. 1,3,4- and 1,2,4-thiadiazole series” (J Med Chem, 1999)

Columns and labels:
[1] = target: T1, Prostaglandin G/H synthase 2 (Homo sapiens, UniProt P35354); experiment: Inhibition of recombinant human prostaglandin G/H synthase 2 (COX-2)
T1 sequence (P35354 whole entry): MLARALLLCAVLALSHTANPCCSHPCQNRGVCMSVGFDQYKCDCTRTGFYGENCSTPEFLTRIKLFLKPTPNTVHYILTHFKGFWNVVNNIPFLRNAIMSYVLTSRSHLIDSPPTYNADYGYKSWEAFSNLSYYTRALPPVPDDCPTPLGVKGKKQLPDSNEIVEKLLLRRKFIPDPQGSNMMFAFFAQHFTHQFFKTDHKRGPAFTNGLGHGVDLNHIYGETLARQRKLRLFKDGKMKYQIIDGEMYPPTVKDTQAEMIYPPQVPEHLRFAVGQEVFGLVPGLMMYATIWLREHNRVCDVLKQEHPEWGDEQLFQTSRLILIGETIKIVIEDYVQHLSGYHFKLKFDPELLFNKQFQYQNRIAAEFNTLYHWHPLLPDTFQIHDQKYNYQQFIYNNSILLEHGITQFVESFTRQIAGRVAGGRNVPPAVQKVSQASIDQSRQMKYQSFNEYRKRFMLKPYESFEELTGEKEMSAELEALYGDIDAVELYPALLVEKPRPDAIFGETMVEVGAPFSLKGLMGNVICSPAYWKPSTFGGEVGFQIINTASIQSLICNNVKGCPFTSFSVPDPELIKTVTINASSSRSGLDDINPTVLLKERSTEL

[2] = target: T2, Prostaglandin G/H synthase 2 (Mus musculus, UniProt Q05769); experiment: IC50 value against Prostaglandin G/H synthase 2 of murine J774A.1 cell line
T2 sequence (Q05769 whole entry): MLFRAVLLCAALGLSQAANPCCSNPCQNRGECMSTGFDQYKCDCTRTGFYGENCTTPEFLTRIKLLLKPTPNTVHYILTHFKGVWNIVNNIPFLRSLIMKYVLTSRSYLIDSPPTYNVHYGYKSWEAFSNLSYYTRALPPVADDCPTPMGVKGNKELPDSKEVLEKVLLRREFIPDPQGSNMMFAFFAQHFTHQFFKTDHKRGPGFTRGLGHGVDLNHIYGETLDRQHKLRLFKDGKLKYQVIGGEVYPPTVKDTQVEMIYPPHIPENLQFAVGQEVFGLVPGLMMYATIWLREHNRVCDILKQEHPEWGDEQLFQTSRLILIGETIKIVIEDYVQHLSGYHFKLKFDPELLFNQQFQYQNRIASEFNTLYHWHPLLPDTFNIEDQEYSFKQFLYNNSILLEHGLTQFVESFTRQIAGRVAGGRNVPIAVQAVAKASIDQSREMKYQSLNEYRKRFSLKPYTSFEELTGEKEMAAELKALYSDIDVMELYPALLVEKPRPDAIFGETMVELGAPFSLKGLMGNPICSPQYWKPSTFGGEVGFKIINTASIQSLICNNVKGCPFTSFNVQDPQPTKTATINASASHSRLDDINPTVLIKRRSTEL

[3] = target: T3, Prostaglandin G/H synthase 1 (Ovis aries, UniProt P05979); experiment: IC50 value against ovine Prostaglandin G/H synthase 1
T3 sequence (P05979 whole entry): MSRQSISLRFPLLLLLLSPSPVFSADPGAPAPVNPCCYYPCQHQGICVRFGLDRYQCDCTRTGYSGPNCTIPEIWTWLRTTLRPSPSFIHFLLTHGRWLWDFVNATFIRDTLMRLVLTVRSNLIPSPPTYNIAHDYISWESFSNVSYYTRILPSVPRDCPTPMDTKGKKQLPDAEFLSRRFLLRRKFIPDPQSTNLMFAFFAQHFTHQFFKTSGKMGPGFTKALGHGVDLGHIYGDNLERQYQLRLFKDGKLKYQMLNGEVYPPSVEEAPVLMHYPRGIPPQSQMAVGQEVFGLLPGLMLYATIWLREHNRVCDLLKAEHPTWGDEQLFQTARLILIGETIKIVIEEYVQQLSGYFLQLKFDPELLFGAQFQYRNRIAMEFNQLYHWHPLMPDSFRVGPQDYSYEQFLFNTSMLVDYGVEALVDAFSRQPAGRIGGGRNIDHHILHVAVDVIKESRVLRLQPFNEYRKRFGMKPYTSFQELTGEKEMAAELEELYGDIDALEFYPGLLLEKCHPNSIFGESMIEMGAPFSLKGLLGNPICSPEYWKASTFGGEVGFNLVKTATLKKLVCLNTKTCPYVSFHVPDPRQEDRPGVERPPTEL

[4] = target: Prostaglandin G/H synthase 1 (Homo sapiens, UniProt P23219); experiment: IC50 value against Prostaglandin G/H synthase 1 of human platelet rich plasma; assay type: cell-free
Chain of Prostaglandin G/H synthase 1 (Homo sapiens, UniProt P23219) (P23219 whole entry): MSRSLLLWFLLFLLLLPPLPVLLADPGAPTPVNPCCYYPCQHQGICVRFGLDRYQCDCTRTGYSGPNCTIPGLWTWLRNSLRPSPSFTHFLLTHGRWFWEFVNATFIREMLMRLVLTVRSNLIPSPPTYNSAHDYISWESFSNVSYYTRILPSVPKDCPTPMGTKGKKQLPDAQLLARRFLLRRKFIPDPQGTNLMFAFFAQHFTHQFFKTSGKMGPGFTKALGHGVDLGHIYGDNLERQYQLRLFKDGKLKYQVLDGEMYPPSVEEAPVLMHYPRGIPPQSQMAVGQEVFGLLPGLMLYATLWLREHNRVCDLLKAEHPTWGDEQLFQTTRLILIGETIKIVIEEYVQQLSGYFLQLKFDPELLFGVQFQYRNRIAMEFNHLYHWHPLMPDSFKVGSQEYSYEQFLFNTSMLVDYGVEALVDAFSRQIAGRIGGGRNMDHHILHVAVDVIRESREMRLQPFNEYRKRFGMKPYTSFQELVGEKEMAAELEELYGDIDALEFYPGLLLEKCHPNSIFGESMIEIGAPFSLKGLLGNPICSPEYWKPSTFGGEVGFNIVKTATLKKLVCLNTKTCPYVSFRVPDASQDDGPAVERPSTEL

[5] = target: T2, Prostaglandin G/H synthase 2

In the case of CC(C)(C)c1cc(-c2nnc(SCC(F)(F)F)s2)cc(C(C)(C)C)c1O, the IC50 [1] is reported as greater than 20 µM, the IC50 [2] is reported as “Not Active” and the IC50 [3] is reported as greater than 20 µM. For the same compound, the IC50 [4] was greater than 20 µM.
In the case of CNc1nnc(-c2cc(C(C)(C)C)c(O)c(C(C)(C)C)c2)s1, the IC50 [1] is reported as 9.6 µM, the IC50 [3] is reported as 0.52 µM and the IC50 [4] is reported as 0.3 µM. For the same compound, the IC50 [5] was 0.69 µM.
Work on CC(C)(C)c1cc(-c2nnc(NC#N)o2)cc(C(C)(C)C)c1O yielded an IC50 [1] of 11 µM, an IC50 [4] of 5.8 µM and an IC50 [5] of 0.39 µM.
In the case of CCCOc1nnc(-c2cc(C(C)(C)C)c(O)c(C(C)(C)C)c2)s1, the IC50 [1] is reported as greater than 20 µM, the IC50 [2] is reported as “Not Active” and the IC50 [3] is reported as greater than 20 µM. The IC50 [4] was 3.6 µM.
Work on COc1nnc(-c2cc(C(C)(C)C)c(O)c(C(C)(C)C)c2)s1 yielded an IC50 [1] of 3 µM, an IC50 [3] of 2.6 µM and an IC50 [4] of 0.2 µM.
Work on CCCSc1nnc(-c2cc(C(C)C)c(O)c(C(C)C)c2)s1 yielded an IC50 [1] greater than 20 µM, an IC50 [3] greater than 20 µM and an IC50 [4] greater than 20 µM. It also gave an IC50 [5] of 1.5 µM.
CC(C)(C)c1cc(-c2nnc(SCc3ccccc3)s2)cc(C(C)(C)C)c1O gave an IC50 [1] greater than 20 µM, an IC50 [3] greater than 20 µM and an IC50 [4] greater than 20 µM. It also gave an IC50 [5] greater than 20 µM.
Compound CC(C)(C)c1cc(-c2nnc(N=C(N)N)s2)cc(C(C)(C)C)c1O has an IC50 [1] of 17 µM, an IC50 [3] of 88 µM and an IC50 [4] of 2.8 µM. For the same compound, the IC50 [5] was 0.21 µM.
CC(C)(C)c1cc(-c2nnc(O)s2)cc(C(C)(C)C)c1O gave an IC50 [1] greater than 20 µM, an IC50 [3] greater than 20 µM and an IC50 [4] of 4.1 µM. It also gave an IC50 [5] of 0.24 µM.
CC(C)(C)c1cc(-c2nsc(NS(C)(=O)=O)n2)cc(C(C)(C)C)c1O showed an IC50 [1] greater than 20 µM and an IC50 [3] greater than 20 µM.
With CC[S+]([O-])c1nnc(-c2cc(C(C)(C)C)c(O)c(C(C)(C)C)c2)s1 (stereo unspecified) the IC50 [1] was greater than 20 µM, the IC50 [3] was greater than 20 µM and the IC50 [4] was 14.6 µM. The IC50 [5] was 0.23 µM.
With COc1nc(-c2cc(C(C)(C)C)c(O)c(C(C)(C)C)c2)ns1 the IC50 [1] was 100 µM and the IC50 [3] was 24 µM.
For COC(=O)CCSc1nnc(-c2cc(C(C)(C)C)c(O)c(C(C)(C)C)c2)s1, the IC50 [1] was greater than 20 µM, the IC50 [2] was “Not Active” and the IC50 [3] was greater than 20 µM. For the same compound, the IC50 [4] was 9.9 µM.
Work on CCSc1nnc(-c2cc(C(C)C)c(O)c(C(C)C)c2)s1 yielded an IC50 [1] greater than 20 µM, an IC50 [3] greater than 20 µM and an IC50 [4] greater than 20 µM. The IC50 [5] was 1.3 µM.
CCSc1nnc(-c2cc(C(C)(C)C)c(O)c(C(C)(C)C)c2)o1 was tested, and the IC50 [1] was 6.5 µM, the IC50 [3] was greater than 20 µM and the IC50 [4] was 1.9 µM. It also gave an IC50 [5] of 0.015 µM.
In the case of CC(C)Sc1nnc(-c2cc(C(C)(C)C)c(O)c(C(C)(C)C)c2)s1, the IC50 [1] is reported as greater than 20 µM, the IC50 [3] is reported as greater than 20 µM and the IC50 [4] is reported as 13.6 µM. It also gave an IC50 [5] of 8.5 µM.
Compound CC(C)(C)c1cc(-c2nc(=O)s[nH]2)cc(C(C)(C)C)c1O has an IC50 [1] of 1.1 µM, an IC50 [3] of 83 µM and an IC50 [4] of 0.43 µM. The IC50 [5] was 0.018 µM.
For CCCSc1nnc(-c2cc(C(C)(C)C)c(O)c(C(C)(C)C)c2)s1, the IC50 [1] was 100 µM, the IC50 [2] was “Not Active” and the IC50 [3] was greater than 20 µM. It also gave an IC50 [4] of 4.1 µM.
With CC(C)(C)c1cc(-c2nnc(SCCC(=O)O)s2)cc(C(C)(C)C)c1O the IC50 [1] was greater than 20 µM, the IC50 [2] was “Not Active” and the IC50 [3] was greater than 20 µM. For the same compound, the IC50 [4] was greater than 20 µM.
C[S+]([O-])c1nnc(-c2cc(C(C)(C)C)c(O)c(C(C)(C)C)c2)s1 (stereo unspecified) gave an IC50 [1] greater than 20 µM, an IC50 [3] greater than 20 µM and an IC50 [4] greater than 20 µM.
CCCSc1nnc(-c2cc(C(C)(C)C)c(O)c(C(C)(C)C)c2)o1 was tested, and the IC50 [1] was greater than 20 µM, the IC50 [2] was “Not Active” and the IC50 [3] was greater than 20 µM. It also gave an IC50 [4] of 1.9 µM.
Work on CC(C)(C)c1cc(-c2nsc(N=C(N)N)n2)cc(C(C)(C)C)c1O yielded an IC50 [1] of 27 µM, an IC50 [3] of 24 µM and an IC50 [4] of 1.7 µM. It also gave an IC50 [5] greater than 20 µM.
